Measured values reported in patent publication US20110281852A1 (priority 2010, published 2011).

Assays:
C/EBPα = experiment: Immunoblot, C/EBPα protein in epididymal fat of FD mice; assay type: in vivo, mouse; conditions: berberine treatment
Procedure: (§1) RNA and protein purification and quantification from epididymal fat tissues: RNA and protein was isolated from 60 mg of epididymal fat tissues with Trizol (Invitrogen, Carlsbad, Calif., USA) following the protocol recommended by the manufacturers. RNA was dissolved in pure water and quantified at 260/280 nm, and sample integrity was checked by 1.5% agarose gel electrophoresis. Protein concentration was determined using the Micro BCA Protein Assay Kit (Fisher Scientific, Pittsburgh, Pa., USA) according to the manufacturer's instructions.
Immunoblot Analysis: Protein expression of GATA-2, GATA-3, PPARγ and C/EBPα in the control of β-actin was assessed by Western Blot. Protein samples from the same group were homogenized as previously reported (Hu and Davies, Phytomedicine (2009) 16:864-873). Protein (25 μg) was separated by polyacrylamide gel electrophoresis using the BioRad Electrophoretic System (60 V for 1 h followed by 90 V for 5 h). The proteins were then transferred to nitrocellulose membranes at 35 V overnight. […]

[1] = Serum glucose assay in mice; assay type: in vivo, mouse
Procedure: Six mice per subgroup were obtained finally.
Serum glucose, triglyceride, cholesterol assay: Blood samples from each mouse were collected and serum was separated by centrifugation for the measurement of levels of glucose, triglyceride and total cholesterol. Serum glucose concentrations were analyzed using Glucose (HK) Assay Kit (Sigma-aldrich, Saint Louis, Mo., USA). Serum triglyceride concentrations were analyzed using Serum Triglyceride Determination Kit (Sigma-aldrich, Saint Louis, Mo., USA). Serum cholesterol concentrations were analyzed using Amplex® Red Cholesterol Assay Kit (Invitrogen, Carlsbad, Calif., USA). All experimental assays were done according to the manufacturer's instructions.

SREBP-1 = experiment: Immunoblotting, SREBP-1 protein in 3T3-L1; assay type: cell-based, mouse; conditions: 8 days
Procedure: Immunoblotting: Protein expression of SREBP-1, PPARγ, and C/EBPα relative to […] was assessed by Western Blot. Total proteins were isolated from 3T3-L1 cells treated with compounds or vehicles for 8 days. The cells were washed twice with PBS, lysed in a HEPES-Tx-PI buffer ([…], 5 mM EDTA, 350 mM Sucrose, 1 μg/ml leupeptin, 1 μg/ml pepstatin, 1% Triton-X, 1 mM PMSF), processed with 25G needles and centrifuged at 12,000 rpm for 5 min. Protein concentration was determined using the Micro BCA Protein Assay Kit (Fisher Scientific, Pittsburgh, Pa., USA) following the manufacturers instructions. 25 μg proteins were loaded and separated by electrophoresis using the BioRad Electrophoretic System (65 V for 7 hour). The proteins were then transferred to nitrocellulose membranes at 40 V overnight. The membrane was blocked for 1 hour at room temperature in 5% nonfat milk in Tris-buffered saline (TBS), then washed with Tween-20-TBS (TTBS, 0.1% Tween-20) three times (15 min, 5 min, 5 min), followed by incubation with primary antibodies SREBP-1 (dilution 1:200), PPARγ (dilution 1:200), C/EBPα (dilution 1:200) (all purchased from Santa Cruz Biotechnology, Santa Cruz, Calif., USA) and […] (dilution 1:1000, Sigma-Aldrich, St. Louis, Mo., USA) at room temperature for 2 hours. […]

3T3-L1 cells = experiment: Quantitative Oil Red O staining, 3T3-L1 adipocyte differentiation (Example 1); assay type: cell-based, mouse; conditions: for reduction in fat droplets: 6 days post differentiation induction
Procedure: Oil-Red-O Staining: Oil-Red-O Staining was performed as previously described (Liu et al. 2004). Images were obtained using an Olympus IX70 inverted microscope (Tokyo, Japan). Quantification Oil-Red-O Staining of cells was carried out as described (Furuyashiki et al., Biosci Biotechnol Biochem (2004) 68:[…]).
Standard Oil Red O staining was then used to examine the extent of differentiation process at days 2, 4, 6, and 8 using microscopy. […] (FIG. 4).

GATA-3 = experiment: Real-Time RT-PCR, GATA-3 mRNA in epididymal fat of FD mice; assay type: in vivo, mouse
Procedure: as §1
Quantitative Real-Time RT-PCR: Real-Time reverse transcriptase polymerase chain reaction (RT-PCR) analysis was used to measure mRNA expression of genes PPARγ, C/EBPα, GATA-2 and GATA-3 in the control of β-actin. Total RNA (0.8 μg) from each sample was used for a reverse transcription reaction using the TaqMan Reverse Transcription Reagents (Applied Biosystems, Foster City, Calif., USA) following the manufacturer's instructions. PCR was done using the SYBR green Master Mix (Applied Biosystems, Foster City, Calif., USA) following the manufacturer's instructions. The cycling conditions of amplification were as follows: an initial step of denaturation at 95° C. for 10 min, 40 cycles of denaturation at 95° C. for 30 s, annealing at 55° C. for 30 s, and elongation at 72° C. for 30 s. Real-Time PCR was performed using Mx3000P Real-Time Thermocyclers (Stratagene, La Jolla, Calif., USA). The relative mRNA levels of these genes were calculated by 2-delta delta CT method and normalized with control-treated groups.

## COc1ccc2cc3[n+](cc2c1OC)CCc1cc2c(cc1-3)OCO2.[Cl-] [berberine, Berberine (Chloride Form)]
C/EBPα
  quantitative protein expression of CEBP-α: did not appear to be significantly changed
[1]; FD mice, 0.75 mg/kg/day
  reduction of serum glucose level vs control treated subgroup: 19.5%
[1]; FD mice, 0.75 mg/kg/day, 36 days (control 195.4±27.3)
  fasting serum glucose level: 157.3 ± 22.5 mg/dL
[1]; FD mice, 1.5 mg/kg/day
  reduction of serum glucose level vs control treated subgroup: 22.3%
[1]; FD mice, 1.5 mg/kg/day, 36 days
  fasting serum glucose level: 151.8 ± 21.1 mg/dL
[1]; FD mice, 3 mg/kg/day
  reduction of serum glucose level vs control treated subgroup: 26.5%
[1]; FD mice, 3 mg/kg/day, 36 days
  fasting serum glucose level: 143.5 ± 12.7 mg/dL
[1]; ND mice, 3 mg/kg/day (control 120.6±27.5)
  fasting serum glucose level: 130.9 ± 16.2 mg/dL
SREBP-1; 8 μM berberine + 15 μM clozapine
  decrease of SREBP-1 protein expression vs clozapine treated group: 64.6%
SREBP-1; 8 μM berberine + 50 μM risperidone
  decrease of SREBP-1 protein expression vs risperidone treated group: 60.4%
3T3-L1 cells; 1 μM
  reduction in fat droplets: 30.6%
3T3-L1 cells; 2 μM
  reduction in fat droplets: 35.8%
3T3-L1 cells; 4 μM
  reduction in fat droplets: 40%
3T3-L1 cells; 8 μM
  reduction in fat droplets: 48.6%
3T3-L1 cells; Mus musculus, 3T3-L1, 192 h, 1 μM, 8 days, fully differentiated cells, read-out: inhibition of fat amount
  inhibition at 1 µM: 59.4%
3T3-L1 cells; Mus musculus, 3T3-L1, 192 h, 2 μM, 8 days, fully differentiated cells, read-out: inhibition of fat amount
  inhibition at 2 µM: 58.4%
3T3-L1 cells; Mus musculus, 3T3-L1, 192 h, 4 μM, 8 days, fully differentiated cells, read-out: inhibition of fat amount
  inhibition at 4 µM: 71.8%
3T3-L1 cells; Mus musculus, 3T3-L1, 192 h, 8 μM, 8 days, fully differentiated cells, read-out: inhibition of fat amount
  inhibition at 8 µM: 72.6%
GATA-3; 0.75 mg/kg/day
  GATA-3 mRNA expression up-regulated by: 3.2 fold
GATA-3; 1.5 mg/kg/day
  GATA-3 mRNA expression up-regulated by: 4.3 fold
GATA-3; 3 mg/kg/day
  GATA-3 mRNA expression up-regulated by: 4.8 fold
